In ChEMBL document CHEMBL1152510, “Melanogenesis inhibitors from the rhizomes of Alpinia officinarum in B16 melanoma cells” (Bioorg Med Chem, 2009):
The source made the active and inactive calls. The calls are words filed in the database; no cut-off is given here.

How the values were obtained:
[1] = biological target: T1, Tyrosinase (Agaricus bisporus) (UniProt O42713); test: Inhibition of mushroom tyrosinase at 3 uM
T1 sequence (whole entry): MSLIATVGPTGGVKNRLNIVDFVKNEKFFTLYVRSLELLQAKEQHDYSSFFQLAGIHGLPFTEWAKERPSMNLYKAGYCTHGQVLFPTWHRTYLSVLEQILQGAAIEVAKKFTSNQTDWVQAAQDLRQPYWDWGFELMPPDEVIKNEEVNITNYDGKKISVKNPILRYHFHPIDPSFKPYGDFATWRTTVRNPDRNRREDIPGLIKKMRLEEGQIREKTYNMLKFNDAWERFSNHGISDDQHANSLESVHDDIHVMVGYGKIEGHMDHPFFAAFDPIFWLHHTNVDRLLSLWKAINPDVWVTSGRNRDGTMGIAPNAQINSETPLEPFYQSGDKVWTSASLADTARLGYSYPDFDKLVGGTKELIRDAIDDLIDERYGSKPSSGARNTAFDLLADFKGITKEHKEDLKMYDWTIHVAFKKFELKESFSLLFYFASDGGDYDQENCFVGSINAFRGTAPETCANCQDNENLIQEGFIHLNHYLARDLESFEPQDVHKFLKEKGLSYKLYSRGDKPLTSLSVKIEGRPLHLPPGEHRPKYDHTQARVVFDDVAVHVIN

[2] = cells; details: Mus musculus, B16-4A5, 68 h, read-out: INH
Description: Inhibition of theophylline-stimulated mouse B16-4A5 cell proliferation assessed as cell viability at 30 uM after 68 hrs by WST8 assay

[3] = cells; details: Mus musculus, B16-4A5, 72 h, read-out: INH
Description: Inhibition of melanogenesis in theophylline-stimulated mouse B16-4A5 cells at 3 uM after 72 hrs

[4] = cells; details: Mus musculus, B16-4A5, 72 h, read-out: INH; remark: listed apart in the source
Description: Inhibition of melanogenesis in theophylline-stimulated mouse B16-4A5 cells at 30 uM after 72 hrs

[5] = cells; details: Mus musculus, B16-4A5, 68 h, read-out: INH; remark: listed apart in the source
Description: Inhibition of theophylline-stimulated mouse B16-4A5 cell proliferation assessed as cell viability at 10 uM after 68 hrs by WST8 assay

[6] = cells; details: Mus musculus, B16-4A5, 72 h, read-out: INH; remark: listed apart in the source
Description: Inhibition of melanogenesis in theophylline-stimulated mouse B16-4A5 cells at 1 uM after 72 hrs

[7] = cells; details: Mus musculus, B16-4A5, 68 h, read-out: INH; remark: listed apart in the source
Description: Inhibition of theophylline-stimulated mouse B16-4A5 cell proliferation assessed as cell viability at 3 uM after 68 hrs by WST8 assay

[8] = cells; details: Mus musculus, B16-4A5, 68 h, read-out: INH; remark: listed apart in the source
Description: Inhibition of theophylline-stimulated mouse B16-4A5 cell proliferation assessed as cell viability at 100 uM after 68 hrs by WST8 assay

[9] = cells; details: Mus musculus, B16-4A5, 68 h, read-out: INH; remark: listed apart in the source
Description: Inhibition of theophylline-stimulated mouse B16-4A5 cell proliferation assessed as cell viability at 1 uM after 68 hrs by WST8 assay

[10] = cells; details: Mus musculus, B16-4A5, 72 h, read-out: INH; remark: listed apart in the source
Description: Inhibition of melanogenesis in theophylline-stimulated mouse B16-4A5 cells at 10 uM after 72 hrs

[11] = biological target: T2, Tyrosinase (Agaricus bisporus, UniProt O42713)
T2 sequence (O42713 whole entry): T1 sequence (whole entry)

[12] = biological target: T1, Tyrosinase (Agaricus bisporus); test: Inhibition of mushroom tyrosinase at 1 uM
[13] = cells; details: Mus musculus, B16-4A5, 68 h
Description: Inhibition of theophylline-stimulated mouse B16-4A5 cell proliferation assessed as cell viability after 68 hrs by WST8 assay

[14] = tested on: B16; test: cells; details: Mus musculus, B16, 72 h
Description: Inhibition of melanogenesis in theophylline-stimulated mouse B16-4A5 cells after 72 hrs

[15] = tested on: B16-4A5; test: Inhibition of TRP2 mRNA expression in theophylline-stimulated mouse B16-4A5 cells at 1 to 30 uM after 72 hrs; assay type: functional, cell-based
[16] = tested on: B16-4A5; test: Inhibition of microphthalmia-associated transcriptional factor level in theophylline-stimulated mouse B16-4A5 cells at 1 to 30 uM after 48 hrs; assay type: functional, cell-based
[17] = cells; details: Mus musculus, B16-4A5, 72 h, read-out: INH; remark: listed apart in the source
Description: Inhibition of melanogenesis in theophylline-stimulated mouse B16-4A5 cells at 100 uM after 72 hrs

[18] = tested on: B16-4A5; test: Inhibition of microphthalmia-associated transcriptional factor level in theophylline-stimulated mouse B16-4A5 cells at 1 to 30 uM after 24 hrs; assay type: functional, cell-based
[19] = tested on: B16-4A5; test: Inhibition of tyrosinase mRNA expression in theophylline-stimulated mouse B16-4A5 cells at 1 to 30 uM after 72 hrs; assay type: functional, cell-based
[20] = tested on: B16-4A5; test: Inhibition of TRP1 mRNA expression in theophylline-stimulated mouse B16-4A5 cells at 1 to 30 uM after 72 hrs; assay type: functional, cell-based
[21] = Inhibition of theophylline-stimulated mouse B16-4A5 cell proliferation assessed as cell viability at 300 uM after 68 hrs by WST8 assay; assay type: functional; details: B16-4A5, 68 h
[22] = Inhibition of melanogenesis in theophylline-stimulated mouse B16-4A5 cells at 300 uM after 72 hrs; assay type: functional; details: B16-4A5, 72 h
[23] = Inhibition of melanogenesis in theophylline-stimulated mouse B16-4A5 cells at 1000 uM after 72 hrs; assay type: functional; details: B16-4A5, 72 h
[24] = Inhibition of theophylline-stimulated mouse B16-4A5 cell proliferation assessed as cell viability at 1000 uM after 68 hrs by WST8 assay; assay type: functional; details: B16-4A5, 68 h

Structure (SMILES) | inhibition [1] [%] | inhibition at 30 µM [2] [%] | inhibition at 3 µM [3] [%] | inhibition at 30 µM [4] [%] | inhibition at 10 µM [5] [%] | inhibition at 1 µM [6] [%] | inhibition at 3 µM [7] [%] | inhibition at 100 µM [8] [%] | inhibition at 1 µM [9] [%] | inhibition at 10 µM [10] [%] | IC50 [11] [µM] | inhibition [12] [%] | IC50 [13] [µM] | IC50 [14] [µM] | inhibition at 100 µM [17] [%] | further results
O[C@H](CCc1ccccc1)C[C@H](O)CCc1ccccc1 | 4.6 | -2.3 | 11.1 | 48.1 | 1.6 | 10.4 | -0.5 | 90.2 | 1.1 | 7.2 | > 100 | 2.7 | 60 | 33 |  | 
COc1ccc(-c2oc3cc(O)cc(O)c3c(=O)c2O)cc1 [KAEMPFERIDE] | -0.2 | 7.4 | 5.9 | 81.2 | 7.9 | 0 | 3.1 | 11.2 | -2 | 39.9 | > 100 | -1.7 | > 100 | 16 | 78.4 | Activity [15]: Active; Activity [16]: Active; Activity [18]: inactive; Activity [19]: Active; Activity [20]: Active
COc1cc(CCC(C)=O)ccc1O [ZINGERONE] | 2.1 | -8.8 | 3.7 | 8.3 | -8 | 7.6 | -2.8 | -6.1 | -0.5 | 6.1 | > 100 | 1.4 | > 100 | > 100 | 15.5 | 
O=C1c2c(O)cc(O)cc2O[C@H](c2ccccc2)[C@H]1O [PINOBAKSIN] | 2.8 | 7.1 | -5.8 | 16.9 | 7 |  | 3.6 | 6.9 | 2.2 | 10.8 | > 100 | 1.8 | > 100 | > 100 | 47.7 | 
COc1cc(CC[C@@H](O)CC(=O)CCc2ccccc2)ccc1O | 4.7 | 15.1 | 8.9 | 49.2 | 11.8 | 7.5 | 11.7 | 20.8 | 5.3 | 23.4 | > 100 | 2.3 | > 100 | 30 | 81.1 | 
O=C(CCc1ccccc1)C[C@H](O)CCc1ccccc1 | 2.5 | -7.6 | 6.8 | 33 | -4.7 | -3.3 | 0.7 | -7.6 | 0 | 10.6 | > 100 | 3.3 | > 100 | 48 | 67.8 | 
O=c1c(O)c(-c2ccccc2)oc2cc(O)cc(O)c12 [GALANGIN] | 26.6 | 12.7 | -5.3 | 87.1 | 11.4 | -0.5 | 7.1 | 53.3 | 1.7 | 43.4 | > 100 | 28 | 100 | 17 |  | Activity [15]: Active; Activity [16]: Active; Activity [18]: inactive; Activity [19]: Active; Activity [20]: Active
O=C1c2c(O)cc(O)cc2O[C@H](c2ccc(O)cc2)[C@H]1O [DIHYDROKAEMPFEROL] | 4.4 | 23.9 | 1.2 | 20.5 | 13.8 | 8.7 | 5.9 | 30.5 | 0.2 | 12.7 | > 100 | 6 | > 100 | 84 | 56 | 
COc1cc(CC/C=C/C(=O)CCc2ccccc2)ccc1O | 3 | 2.6 | 22.5 | 80.1 | 5.1 | 11.6 | 3.8 | 90.6 | 3.2 | 49.3 | > 100 | 3.2 | 60 | 10 |  | Activity [15]: Active; Activity [16]: Active; Activity [18]: inactive; Activity [19]: Active; Activity [20]: Active
OC[C@H]1O[C@@H](Oc2ccc(O)cc2)[C@H](O)[C@@H](O)[C@@H]1O [ARBUTIN] |  | 17.6 |  | 17.8 | 8.7 |  |  | 21.9 |  | 6.7 |  |  | > 1000 | 116 | 46.9 | inhibition at 300 µM [21]: 20.2%; inhibition at 300 µM [22]: 71%; inhibition at 1000 µM [23]: 88.7%; inhibition at 1000 µM [24]: 46.9%
O=c1c(O)c(-c2ccc(O)cc2)oc2cc(O)cc(O)c12 [KAEMPFEROL] | 7.6 | 26.1 | 9.9 | 61.1 | 23.5 | 8.3 | 18.1 | 56 | 5.6 | 23.4 | > 100 | 5.7 | 88 | 20 |  | 
O=C(O)CCc1ccccc1 [PHENYL PROPIONIC ACID] | 5.3 | 1.3 | 6.3 | 16.9 | 1.2 | 0.1 | -2.8 | 2.9 | -1.4 | 3.8 | > 100 | 3.8 | > 100 | > 100 | 20.9 | 
